Measurements published in patent publication US7211423B2 (Bristol-Myers Squibb Co., priority 2004, dated 2007).

Tests used:
[1] = target: T1, recombinant human ACC2 (Homo sapiens, UniProt O00763, V2141I); assay: ACC enzyme activity assay ([14C]bicarbonate fixation) with purified recombinant human ACC2; type: biochemical; conditions: for Km: substrate varied, all other reagents saturating, 37° C.; for IC50: concentration dependent inhibition of recombinant human ACC2
T1 construct: To delete the NH2-terminus 148 amino acid of human ACC2; 6xHis (C); made in house; host or cells: Sf9 insect cells infected with recombinant baculovirus (pBlueBac-human-ACC2-Delta148-V5-Myc-His-WT); purified on a c-Myc-5 IgG column
T1 sequence (O00763 149-2458 V2141I): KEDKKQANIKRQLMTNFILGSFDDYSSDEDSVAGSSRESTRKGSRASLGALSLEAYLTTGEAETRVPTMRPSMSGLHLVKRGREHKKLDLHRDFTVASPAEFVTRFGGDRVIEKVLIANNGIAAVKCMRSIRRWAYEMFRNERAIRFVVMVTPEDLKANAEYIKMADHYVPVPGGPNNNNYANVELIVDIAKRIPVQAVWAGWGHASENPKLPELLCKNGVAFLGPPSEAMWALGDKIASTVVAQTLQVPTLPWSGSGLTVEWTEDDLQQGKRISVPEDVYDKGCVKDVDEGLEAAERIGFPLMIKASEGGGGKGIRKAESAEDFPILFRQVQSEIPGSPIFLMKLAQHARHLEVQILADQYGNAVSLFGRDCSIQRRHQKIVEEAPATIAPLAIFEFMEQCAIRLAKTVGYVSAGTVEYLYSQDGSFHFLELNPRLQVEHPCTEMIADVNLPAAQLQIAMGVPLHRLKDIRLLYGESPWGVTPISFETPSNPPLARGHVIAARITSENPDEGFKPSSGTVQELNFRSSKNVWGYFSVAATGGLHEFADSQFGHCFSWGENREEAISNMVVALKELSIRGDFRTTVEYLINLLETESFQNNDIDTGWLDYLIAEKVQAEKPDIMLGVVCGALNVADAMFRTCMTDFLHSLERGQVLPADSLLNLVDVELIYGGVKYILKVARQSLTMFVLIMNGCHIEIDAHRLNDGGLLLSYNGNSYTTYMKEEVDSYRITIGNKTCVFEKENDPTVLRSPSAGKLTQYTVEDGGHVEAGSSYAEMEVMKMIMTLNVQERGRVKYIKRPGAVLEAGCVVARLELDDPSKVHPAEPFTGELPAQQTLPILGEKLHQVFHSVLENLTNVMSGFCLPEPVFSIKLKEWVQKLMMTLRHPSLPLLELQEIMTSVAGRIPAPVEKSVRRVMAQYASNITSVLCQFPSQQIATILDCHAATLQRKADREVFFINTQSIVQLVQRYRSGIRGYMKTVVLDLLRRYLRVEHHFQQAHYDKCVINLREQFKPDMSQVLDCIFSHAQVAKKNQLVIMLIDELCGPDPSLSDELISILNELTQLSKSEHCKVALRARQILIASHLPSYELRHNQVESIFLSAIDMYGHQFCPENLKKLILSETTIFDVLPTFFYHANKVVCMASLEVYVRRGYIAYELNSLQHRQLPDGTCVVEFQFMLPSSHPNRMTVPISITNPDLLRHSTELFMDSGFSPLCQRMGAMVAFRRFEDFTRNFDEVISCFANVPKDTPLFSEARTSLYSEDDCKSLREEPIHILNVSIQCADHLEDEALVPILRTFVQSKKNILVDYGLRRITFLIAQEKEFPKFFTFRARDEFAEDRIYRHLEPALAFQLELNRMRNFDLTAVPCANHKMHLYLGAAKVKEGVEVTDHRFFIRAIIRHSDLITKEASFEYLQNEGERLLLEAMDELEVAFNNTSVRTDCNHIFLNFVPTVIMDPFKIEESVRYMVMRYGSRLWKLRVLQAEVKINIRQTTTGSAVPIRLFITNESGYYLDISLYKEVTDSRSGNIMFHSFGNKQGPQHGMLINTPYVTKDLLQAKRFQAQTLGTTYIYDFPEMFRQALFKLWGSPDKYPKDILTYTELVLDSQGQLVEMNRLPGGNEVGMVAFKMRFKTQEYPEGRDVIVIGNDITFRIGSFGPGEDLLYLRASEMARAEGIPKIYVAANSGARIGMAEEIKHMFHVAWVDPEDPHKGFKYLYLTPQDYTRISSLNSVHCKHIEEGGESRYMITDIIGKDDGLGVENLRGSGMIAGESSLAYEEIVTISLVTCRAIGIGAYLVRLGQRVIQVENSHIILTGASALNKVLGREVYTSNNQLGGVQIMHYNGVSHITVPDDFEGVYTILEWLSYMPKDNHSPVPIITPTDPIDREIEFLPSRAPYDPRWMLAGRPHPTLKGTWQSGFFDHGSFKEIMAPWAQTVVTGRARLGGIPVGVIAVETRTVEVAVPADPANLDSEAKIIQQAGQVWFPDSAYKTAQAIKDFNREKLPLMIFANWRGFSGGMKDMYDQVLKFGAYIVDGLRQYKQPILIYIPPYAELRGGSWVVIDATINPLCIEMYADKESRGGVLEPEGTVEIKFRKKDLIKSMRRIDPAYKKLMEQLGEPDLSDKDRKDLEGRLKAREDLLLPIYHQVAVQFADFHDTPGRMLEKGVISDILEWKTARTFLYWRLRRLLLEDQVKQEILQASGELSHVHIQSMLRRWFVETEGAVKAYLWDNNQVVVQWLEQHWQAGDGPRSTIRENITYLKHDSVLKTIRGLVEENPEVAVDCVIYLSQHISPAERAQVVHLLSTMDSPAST
Experimental: ACC enzymatic assays were carried out essentially according to Tanabe et al. (Tanabe et al., (1981) Methods Enzymol. 71 Pt C, 5–16) with modifications. […] Aliquots of 30 μl of 25 mM KH[^14C]O3 (specific activity 1.3 μCi/μmol, final KH[^14C]O3, concentration 5 mM) was then added to the mixture to initiate the reaction which was carried out for 10 min at 37° C. At the end, the reactions were quenched with 50 μl 2 N HCl and the vials were heated for 2 hours at 80° C. to remove excess bicarbonate as ^14CO2. Scintillant was then added and the acid-stable malonyl CoA remaining in the vial was counted in a scintillation counter. ACC specific activities were expressed as nmol/min/mg protein.

[2] = tested on: Rat ACC2; conditions: Trumble et al. (1995), cited from earlier work; for IC50: literature value for rat ACC2 enzyme
[3] = target: Rat ACC1 (Rattus norvegicus, UniProt P11497); conditions: literature value, Trumble et al. (1995); cited from earlier work

Row | IC50 [1] [µM] | SMILES | Km [1] [µM] | Km ([2]; literature value) [µM] | Km [3] [µM] | IC50 [2] [µM] | also measured
1 |  | Nc1ncnc2c1ncn2[C@@H]1O[C@H](COP(=O)(O)OP(=O)(O)OP(=O)(O)O)[C@@H](O)[C@H]1O [ATP] | 270 | 58 | 110 |  | 
2 |  | CC(=O)SCCNC(=O)CCNC(=O)[C@H](O)C(C)(C)COP(=O)(O)OP(=O)(O)OC[C@H]1O[C@@H](n2cnc3c(N)ncnc32)[C@H](O)[C@@H]1OP(=O)(O)O [Acetyl CoA, acetyl CoA] |  | 32 | 22 |  | 
3 |  | O=C(O)CC(O)(CC(=O)O)C(=O)O [Citrate] |  |  |  |  | Kact ([2]; literature value): 2.1 mM; Kact [3]: 3 mM
4 |  | O=C(O)O [HCO3^−, bicarbonate] | 5000 | 2300 | 2700 |  | 
5 | 26.7 | CC(C)(COP(=O)(O)OP(=O)(O)OC[C@H]1O[C@@H](n2cnc3c(N)ncnc32)[C@H](O)[C@@H]1OP(=O)(O)O)[C@@H](O)C(=O)NCCC(=O)NCCSC(=O)CC(=O)O [malonyl CoA] |  |  |  | 10.6 | 
6 | 4.4 | CCCCCCCCCCCCCCCC(=O)SCCNC(=O)CCNC(=O)[C@H](O)C(C)(C)COP(=O)(O)OP(=O)(O)OC[C@H]1O[C@@H](n2cnc3c(N)ncnc32)[C@H](O)[C@@H]1OP(=O)(O)O [palmitoyl CoA] |  |  |  | 2.2 | 
